Experimental data: patent publication US8758822B2, “Method for manufacturing uniform size polymeric nanoparticles containing poorly soluble drugs” (Korea Research Institute of Bioscience and Biotechnology, priority 2008, dated 2014)

Key:
[1] = taken as a form of tablet; cited from earlier work
[2] = system: carbon tetrachloride-induced liver damage; assay: Treatment effects on carbon tetrachloride-induced liver damage; type: in vivo, Sprague Dawley rats; conditions: blood serum after 4 weeks; for Relative concentration of ALT against the control group: 25 mg/kg oral; for ALT* (average ALT concentration ± deviation): 25 mg/kg oral once a day, 6 times a week, CCl4 0.75 ml/kg i.p. 2 times a week
Protocol: 6-week old 20 male Sprague Dawley rats (Orient Bio, Korea) were weighed and distributed to 4 groups 5 to each group to be equal in average weight and degree of dispersion. Under the condition of 23±2′C of temperature and 55±5% of relative humidity in an animal facility, 0.75 ml/kg of 50% solution (v/v) (Sigma-Aldrich, USA) of liver toxic carbon tetrachloride (CCl4) mixed with corn oil was injected each time into the peritoneal cavity 2 times a week (Mondays & Fridays) for 4 weeks.
(§1) 1. For Group 1 (control group), 0.75 ml/kg of carbon tetrachloride was injected each time into the peritoneal cavity 2 times a week (Mondays & Fridays) for 4 weeks, and no additional compounds was administered any more.
(§2) 2. For Group 2, in addition to the 0.75 ml/kg of carbon tetrachloride injection each time into the peritoneal cavity 2 times a week (Mondays & Fridays) for 4 weeks, BDD equivalent to 25 mg per 1 kg of body weight of each rat, which was suspended in 1% (w/v) of CMC (carboxylmethyl cellulose sodium salt, Sigma-Aldrich, USA) solution were orally administered each time once a day, 6 times a week for 4 weeks.
as §2, with “3.” for “2.”, “3,” for “2,”, “BDD-containing polymeric nanoparticles of the present invention prepared via Example 2” for “BDD”, “were” for “was”, “(Carboxylmethyl” for “(carboxylmethyl”
4. For Group 4 (no treatment group), no carbon tetrachloride and compounds were administered.
In detail, after 4 weeks, each animal was anesthetized by injecting 4% of 4 ml-chloral hydrate (BDH Laboratory Supplies, U.K.) Into the peritoneal cavity, and blood was taken out from the heart and left at a room temperature for an hour. After then, blood serum was obtained by spinning down at 16000 rpm for 20 minutes, and ALT and AST concentrations were measured by an automatic blood biochemistry analyzer (HITACHI 7080, HITACHI, Japan) using an ALT and AST test reagents (TA-Test Wako; WAKO Pure Chemical, Japan).

[3] = system: ICR rats; assay: Acute toxicity test; type: in vivo; conditions: for Fatality rate / No. of dead rats: after 1 week
Text: Acute toxicity was investigated upon administering the PLGA-BDD nanoparticles of the present invention prepared via Example 2.

[4] = system: carbon tetrachloride-induced liver damage; conditions: administered 2 weeks, CCl4 continued to 3 and 4 weeks; FIGS. 6 and 7
Protocol: as §1

## COC(=O)c1cc(OC)c2c(c1-c1c(C(=O)OC)cc(OC)c3c1OCO3)OCO2 [BDD, biphenyl-dimethyl-dicarboxylate]
[1]
  bioavailability: 20-30%
[2]; Table 2
  Relative concentration of ALT against the control group: 42%
  ALT* (average ALT concentration ± deviation): 229.6 ± 99.7 SF IU/l
[2]; Table 3
  Relative concentration of ALT against the control group: 52.9%
  ALT* (average ALT concentration ± deviation): 479.7 ± 144.8 SF IU/l
[3]; 0.005 g per kg oral
  Fatality rate: 0%
  No. of dead rats: 0
[3]; 0.1 g per kg oral
  Fatality rate: 0%
  No. of dead rats: 0
[3]; 0.25 g per kg oral
  Fatality rate: 0%
  No. of dead rats: 0
[3]; 0.5 g per kg oral
  Fatality rate: 0%
  No. of dead rats: 0
[3]; 1 g per kg oral
  Fatality rate: 0%
  No. of dead rats: 0
[3]; oral
  LD50: >2000 mg/kg
[4]
  inhibiting effect on increase of carbon tetrachloride-induced ALT and AST concentration over time: rebounded after 4 weeks
